Experimental data reported in ChEMBL document CHEMBL1139560, “Synthesis of linked berberine dimers and their remarkably enhanced DNA-binding affinities” (Bioorg Med Chem Lett, 2005).

Assays:
Format in all cases: nucleic-acid assay
Nucleic Acid [1] = assay: In vitro association constant for binding at d(TA AGAATTCTTA)2 done in 50 mM Tris-HCL in pH 6.35 at room temperature
Nucleic Acid [2] = assay: In vitro relative affinity for binding to d(AAGAATTCTT)2
Nucleic Acid [3] = assay: In vitro relative affinity for binding to d(TA AGAATTCTTA)2
Nucleic Acid [4] = assay: In vitro association constant for binding at d(AAGAATTCTT)2 done in 50 mM Tris-HCL in pH 6.35 at room temperature

Structure (SMILES)	Ka (Nucleic Acid [1])	RA (Nucleic Acid [2])	RA (Nucleic Acid [3])	Ka (Nucleic Acid [4])
COc1ccc2cc3[n+](cc2c1OCCCCOc1c(OC)ccc2cc4[n+](cc12)CCc1cc2c(cc1-4)OCO2)CCc1cc2c(cc1-3)OCO2	349000	7.1	11.9	87800
COc1ccc2cc3[n+](cc2c1OCCCCCOc1c(OC)ccc2cc4[n+](cc12)CCc1cc2c(cc1-4)OCO2)CCc1cc2c(cc1-3)OCO2	321000	4.7	11	57700
COc1ccc2cc3[n+](cc2c1OC)CCc1cc2c(cc1-3)OCO2	29300	1	1	12400
COc1ccc2cc3[n+](cc2c1OCCCOc1c(OC)ccc2cc4[n+](cc12)CCc1cc2c(cc1-4)OCO2)CCc1cc2c(cc1-3)OCO2	2.76e+06	19.8	94.2	246000
COc1ccc2cc3[n+](cc2c1OCCCCCCOc1c(OC)ccc2cc4[n+](cc12)CCc1cc2c(cc1-4)OCO2)CCc1cc2c(cc1-3)OCO2	248000	2.8	8.5	34200
